Key:
Format in all cases: cell-based, human
A375 cells = experiment: Milliplex cytokine/chemokine array
Experimental: FIG. 7. TLR and TLR signaling-related protein expression profiles on melanoma cell lines. (A) The expression levels of TLR1-TLR10 and various TLR-related proteins were examined by Western blot in samples from human melanoma cell lines. (B) The TLR1-TLR2 ligand Pam3CysK4 was added to A375 cells for 48 hrs. Cytokine and chemokine production by was determined using a Milliplex cytokine/chemokine array. (C) IRAK-1,-4 inhibitor or vehicle alone (DMSO) was added to melanoma cells for 48 hrs. The level of phosphorylated and non-phosphorylated p65 subunit of NF-KB was determined by Western blot. (D) Cytokine and chemokine levels in the supernatant A375 cell culture were examined using a Milliplex cytokine/chemokine array 48 hours after adding IRAK-1,-4 inhibitor or DMSO. ANOVA; **P<0.001, *P<0.05.
FIG. 19. Inhibiting IRAK-1/-4 abrogates the effects of TLR1-TLR2 agonist in melanoma cells. A375 cells were cultured in the presence or absence of TLR1-TLR2 ligand Pam3CysK4 (2.5 μg/ml) and in the presence of the IRAK-1/-4 inhibitor (10 μM) or vehicle control DMSO. Cytokine and chemokine production by was determined using a Milliplex cytokine/chemokine array 48 hrs. later.
A375 cells were cultured in the presence or absence of TLR1-TLR2 ligand Pam3CysK4 (2.5 μg/ml) and in the presence of the IRAK-1,-4 inhibitor (10 μM) or vehicle control DMSO. (FIG. 19). Therefore, activation of IRAK-1,-4 signaling on melanoma cells in vivo might contribute to cancer progression by inducing the expression of various chemokines and cytokines beneficial to cancer cell survival, division, and/or angiogenesis.

G361 melanoma cells = experiment: Western blot of IRAK phosphorylation in G361; settings: Pam3CysK4 2.5 μg/ml or flagellin 100 ng/ml, 48 hours, FIG. 22B
Experimental: FIG. 22. Effects of TLR stimulation and cytokines on IRAK phosphorylation in melanoma cells. (A) A375 cells were cultured in the presence of anti-IL-18, anti-CXCL-1, (R&D Systems), anti-IL-1 (BioLegend), or mouse IgG (Sigma-Aldrich) all at 10 μg/ml. Forty-eight hours later the levels of the indicated proteins were determined by western blot. (B) A375 cells, which express p-IRAK-1 and p-IRAK-4, and G361 melanoma cells, which express very low levels of p-IRAK-1 (and express TLR5) were cultured in the presence of TLR1-TLR2 agonist (Pam3CysK4; 2.5 μg/ml) or TLR5 (flagellin; 100 ng/ml; InVivogen). Forty-eight hours later total protein was collected and the levels of the indicated proteins were examined by western blot.
Total cell extracts were prepared from melanoma cells. […] Melanoma tissue arrays were purchased from US Biomax, Inc (Rockville, Md.). For immunohistochemical staining samples were stained with mouse monoclonal anti-human phosphor-IRAK.-4 antibody (Abnova; dilution, 3.5 μg/ml) or normal mouse serum. Tissue histology sections (5-μm-thick) were deparaffinized, hydrated, heated in boiling 10 mmol/L sodium citrate (pH 6.0), for antigen retrieval, for 30 min and washed in Tris buffer. Peroxide blocking was done with 3% […] in methanol at room temperature for 15 min, followed by 10% fetal bovine serum in TBS-t for 30 min at room temperature. Primary antibody incubation was done overnight at 4° C. Secondary antibody incubation with horse anti-mouse (1:200; Vector Laboratories, Burlingame, Calif.) was done for 1 hr, followed by application of diaminobenzidine chromogen for 5 min. The slides were then counterstained with hematoxylin and topped with a coverslip. IHC specimens were analyzed using “quick score” system in which the intensity of the immunohistochemical reaction was scored by multiplying the intensity 1 (weak), 2 (moderate), and 3 (strong) and the proportion of cells staining positively 0 (<10%), 1 (10-25%), 2 (26-50%), 3 (51-75%) or 4 (>75%).

Primary T-cells Non-Act = experiment: Proliferation (3H-thymidine) of non-activated primary T-cells; settings: 3H-thymidine uptake, 72 h
Excerpt: CCRF-CEM, CEM/C1, CEM/C2, CEM-C7, Jurkat, Loucy, Molt-4, HSB-2, SUP-T1, Hut 78, HH, Hut 102, MO, and H9 T-leukemia and T-lymphoma cell lines were purchased from the American Type Culture Collection (Manassas, Va., USA). All of the cell lines were initially expanded and cryopreserved within one month of receipt. Cells were typically used for 6 months at which time a fresh vial of cryopreserved cells was used. Total T cells from healthy donors were isolated via negative selection followed by positive selection using a CD3+ selection kit (Invitrogen, Carlsbad, Calif.). T cells were isolated from patients with T-ALL bone marrow or peripheral blood samples containing more than 70% leukemia cells using a CD2+ isolation kit (STEMCELL Technologies, Vancouver, Canada). All tissues were collected under institutional IRB-approved protocols and all participants gave written informed assent/consent. For in vitro experiments, T-ALL cells were cultured in AIM-V medium supplemented with 20% human AB serum in the presence of recombinant human stem cell factor (50 ng/mL; Amgen, Thousand Oaks, Calif.), insulin (20 nM; Sigma-Aldrich, St Louis, Mo., USA) and IL-7 (50 ng/mL; R&D Systems, Minneapolis, Minn., USA). […]
Cells were cultured in a 96-well plate (Corning Costar, Corning, N.Y., USA) with various concentrations of TLR ligands 1-9, starting at 10 μg/ml, in a final volume of 200 ul. […] After this time point, cells were harvested with a Packard Filter-Mate-96 cell harvester (Perkin Elmer, Waltham, Mass., USA) and counted on Packard Top Count-NXT (Perkin Elmer, Waltham, Mass., USA). Results were expressed as average counts per minute (cpm). […] Forty-eight hours later, proliferation (±SD) was determined by ^3H-thymidine incorporation. Alternatively, apoptosis was measured by flow cytometry after staining cells with Annexin-V (BD Pharmingen, San Diego, Calif., USA) and propidium iodide (Sigma). Cell number was counted under microscopy by staining cells with trypan blue. […]

Jurkat = experiment: Proliferation (3H-thymidine) of Jurkat; settings: 3H-thymidine uptake, 72 h
Excerpt: CCRF-CEM, CEM/C1, CEM/C2, CEM-C7, Jurkat, Loucy, Molt-4, HSB-2, SUP-T1, Hut 78, HH, Hut 102, MO, and H9 T-leukemia and T-lymphoma cell lines were purchased from the American Type Culture Collection (Manassas, Va., USA). All of the cell lines were initially expanded and cryopreserved within one month of receipt. Cells were typically used for 6 months at which time a fresh vial of cryopreserved cells was used. Total T cells from healthy donors were isolated via negative selection followed by positive selection using a CD3+ selection kit (Invitrogen, Carlsbad, Calif.). T cells were isolated from patients with T-ALL bone marrow or peripheral blood samples containing more than 70% leukemia cells using a CD2+ isolation kit (STEMCELL Technologies, Vancouver, Canada). All tissues were collected under institutional IRB-approved protocols and all participants gave written informed assent/consent. For in vitro experiments, T-ALL cells were cultured in AIM-V medium supplemented with 20% human AB serum in the presence of recombinant human stem cell factor (50 ng/mL; Amgen, Thousand Oaks, Calif.), insulin (20 nM; Sigma-Aldrich, St Louis, Mo., USA) and IL-7 (50 ng/mL; R&D Systems, Minneapolis, Minn., USA). In other experiments, protein lysate was collected using the Full Moon Biosystems (Sunnyvale, Calif., USA) buffer prior to protein examination by western blot or protein array.
Cells were cultured in a 96-well plate (Corning Costar, Corning, N.Y., USA) with various concentrations of TLR ligands 1-9, starting at 10 μg/ml, in a final volume of 200 ul. TLR ligands were diluted 2-fold. Cell lines (25-40×10^3/well) were cultured for 54 hours, whereas fresh patient-derived T-ALL cells (200×10^3/well) were cultured for 30 hours prior to adding [^3H]-thymidine for 18 hours. After this time point, cells were harvested with a Packard Filter-Mate-96 cell harvester (Perkin Elmer, Waltham, Mass., USA) and counted on Packard Top Count-NXT (Perkin Elmer, Waltham, Mass., USA). Results were expressed as average counts per minute (cpm). In some experiments CCRF-CEM cells were pre-treated with TLR1-TLR2 ligand (Pam3CysK4; 2.5 ug/ml) for 48 hrs, washed, and then cultured in the presence of varying concentrations of FBS. Forty-eight hours later, proliferation (±SD) was determined by ^3H-thymidine incorporation. Alternatively, apoptosis was measured by flow cytometry after staining cells with Annexin-V (BD Pharmingen, San Diego, Calif., USA) and propidium iodide (Sigma). Cell number was counted under microscopy by staining cells with trypan blue. […]

| Compound | production of VEGF, CXCLI, MCP 1, PDGF-A and FGF-2 (A375 cells; 48 hrs, absence of TLR agonists, p<0.05, FIG. 7D) | cytokine/chemokine effects of TLR1-TLR2 agonist (A375 cells; IRAK-1,-4 inhibitor 10 μM with Pam3CysK4 2.5 μg/ml, FIG. 19) | changes in levels of MCP-I, IL-6 and fractalkine (A375 cells; 48 hrs, FIG. 7B) | levels of GM-CSF and IP-10 (A375 cells; 48 hrs, p<0.001, FIG. 7B) | levels of cytokines and chemokines including VEGF, CXCLI and IL-8 (A375 cells; 48 hrs, p<0.05, FIG. 7B) | p-IRAK-1 or p-IRAK-4 expression levels (G361 melanoma cells) | Proliferative effects of TLR ligands (Primary T-cells Non-Act) | Proliferative effects of TLR ligands (Jurkat) |
| --- | --- | --- | --- | --- | --- | --- | --- | --- |
| O=C(Nc1nc2ccccc2n1CCN1CCOCC1)c1cccc([N+](=O)[O-])c1 [IRAK-1,-4 inhibitor] | significantly reduced | decreased the effects of TLR1-TLR2 agonist | – | – | – | – | – | – |
| tripalmitoyl-S-(bis(palmitoyloxy)propyl)-Cys-Ser-(Lys)3-Lys [Pam3Cysk4] | – | – | not statistically significant | significantly increased | significantly augmented | neither TLR-1-TLR2 agonist (Pam3CysK4), nor TLR5 (Flagellin) stimulation increased or induced | ∘ | ∘ |

From patent US9464326B2, “Total and phosphorylated IL-1 receptor-associated kinase-1 and IL-1 receptor-associated kinase-4 as a biomarker for cancer progression and chemotherapy resistance” (University of Maryland, Baltimore, priority 2012, dated 2016)
